Data on 13 compounds can be found in patent publication US20240190880A1 (THE REGENTS OF THE UNIVERSITY OF MICHIGAN, priority 2021, published 2024).

The first assay has as its target T1, ER (Homo sapiens, UniProt P03372).
T1 construct: host or cells: T47D and MCF7 human breast cancer cells
T1 sequence (P03372 1-595): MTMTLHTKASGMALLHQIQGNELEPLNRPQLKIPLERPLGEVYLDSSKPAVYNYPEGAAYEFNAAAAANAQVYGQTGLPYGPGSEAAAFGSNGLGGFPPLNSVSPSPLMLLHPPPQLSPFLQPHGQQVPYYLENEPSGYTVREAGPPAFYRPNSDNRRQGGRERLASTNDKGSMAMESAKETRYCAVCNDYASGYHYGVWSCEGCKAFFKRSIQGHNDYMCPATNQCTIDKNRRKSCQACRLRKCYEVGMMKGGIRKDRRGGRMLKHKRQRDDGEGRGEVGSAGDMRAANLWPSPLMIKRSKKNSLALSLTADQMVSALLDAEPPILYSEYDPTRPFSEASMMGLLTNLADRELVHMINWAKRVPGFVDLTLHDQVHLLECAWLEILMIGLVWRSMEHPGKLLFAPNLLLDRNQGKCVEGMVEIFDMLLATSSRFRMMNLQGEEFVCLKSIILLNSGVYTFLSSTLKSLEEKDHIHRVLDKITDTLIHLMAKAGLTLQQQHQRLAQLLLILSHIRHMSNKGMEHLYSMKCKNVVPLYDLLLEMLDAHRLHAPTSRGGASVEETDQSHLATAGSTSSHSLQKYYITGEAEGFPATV
As to the kind of experiment: ER degradation activity, in-cell western blot analysis in T47D cells. To be noted: 16 hours, Table A does not say which cell line (T47D or MCF7), read-out: Potency (DC50). It is filed as cell-based. In outline: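 T47D cells grown in DMEM with 10% FBS were treated with compounds for 16 hours at 0.5% DMSO final. ER was detected by in-cell western using 680/800 near-infrared secondary antibodies. Residual ER is given as percent of untreated and DMSO-treated wells set to 100%.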
The term DC50 denotes the concentration giving 50% degradation. `C[C@@H]1Cc2cc(O)ccc2[C@@H](c2ccc(N3CCC(C(=O)N4CC(CN5Cc6cc7c(cc6C5)C(=O)N(C5CCC(=O)NC5=O)C7=O)C4)CC3)cn2)N1CC(F)F` (stereo partly drawn) [E 351, 6-((1-(1-(6-((1S,3R)-2-(2,2-difluoroethyl)-6-hydroxy-3-methyl-1,2,3,4-tetrahydroisoquinolin-1-yl)pyridin-3-yl)piperidine-4-carbonyl)azetidin-3-yl)methyl)-2-(2,6-dioxopiperidin-3-yl)-6,7-dihydropyrrolo[3,4-f]isoindole-1,3(2H,5H)-dione]: the half-maximal degradation concentration (DC50) was more than 100 nM.

For `C[C@@H]1Cc2cc(O)ccc2[C@@H](c2c(F)cc(N3CCC4(CCN(C(=O)CN5Cc6cc7c(cc6C5)C(=O)N(C5CCC(=O)NC5=O)C7=O)CC4)CC3)cc2F)N1CC(F)(F)F` (stereo partly drawn) [E 225, 6-(2-(9-(3,5-difluoro-4-((1S,3R)-6-hydroxy-3-methyl-2-(2,2,2-trifluoroethyl)-1,2,3,4-tetrahydroisoquinolin-1-yl)phenyl)-3,9-diazaspiro[5.5]undecan-3-yl)-2-oxoethyl)-2-(2,6-dioxopiperidin-3-yl)-6,7-dihydropyrrolo[3,4-f]isoindole-1,3(2H,5H)-dione], the DC50 was more than 100 nM.

Turning to `C[C@@H]1Cc2c([nH]c3ccccc23)[C@@H](c2c(F)cc(N3CCC(N4CCC(C(=O)N5Cc6cc7c(cc6C5)C(=O)N(C5CCC(=O)NC5=O)C7=O)CC4)C3)cc2F)N1CC(F)F` (stereo partly drawn) [E 110, 6-(1-(1-(4-((1R,3R)-2-(2,2-difluoroethyl)-3-methyl-2,3,4,9-tetrahydro-1H-pyrido[3,4-b]indol-1-yl)-3,5-difluorophenyl)pyrrolidin-3-yl)piperidine-4-carbonyl)-2-(2,6-dioxopiperidin-3-yl)-6,7-dihydropyrrolo[3,4-f]isoindole-1,3(2H,5H)-dione], the 50% degradation concentration (DC50) was more than 100 nM.

With `O=C1CCC(N2C(=O)c3cc4c(cc3C2=O)CN(CC2CCN(C(=O)C3(F)CN(c5ccc([C@@H]6c7ccc(O)cc7CC[C@@H]6c6ccccc6)cc5)C3)CC2)C4)C(=O)N1` (stereo partly drawn) [E 203, 2-(2,6-dioxopiperidin-3-yl)-6-((1-(3-fluoro-1-(4-((1R,2S)-6-hydroxy-2-phenyl-1,2,3,4-tetrahydronaphthalen-1-yl)phenyl)azetidine-3-carbonyl)piperidin-4-yl)methyl)-6,7-dihydropyrrolo[3,4-f]isoindole-1,3(2H,5H)-dione], the half-maximal degradation concentration (DC50) was more than 100 nM.

Turning to `C[C@@H]1Cc2c([nH]c3ccccc23)[C@@H](c2c(F)cc(N3CCC4(CC3)CC(C(=O)N3CCC(N5Cc6cc7c(cc6C5)C(=O)N(C5CCC(=O)NC5=O)C7=O)CC3)C4)cc2F)N1CC(F)F` (stereo partly drawn) [E 100, 6-(1-(7-(4-((1R,3R)-2-(2,2-difluoroethyl)-3-methyl-2,3,4,9-tetrahydro-1H-pyrido[3,4-b]indol-1-yl)-3,5-difluorophenyl)-7-azaspiro[3.5]nonane-2-carbonyl)piperidin-4-yl)-2-(2,6-dioxopiperidin-3-yl)-6,7-dihydropyrrolo[3,4-f]isoindole-1,3(2H,5H)-dione], the DC50 is less than 10 nM.

Take `O=C1CCC(N2C(=O)c3cc4c(cc3C2=O)CN(C2CCC(CN3CCN(c5ccc([C@@H]6c7ccc(O)cc7CC[C@@H]6c6ccccc6)cc5)CC3)CC2)C4)C(=O)N1` (stereo partly drawn) [E 290, 2-(2,6-dioxopiperidin-3-yl)-6-(4-((4-(4-((1R,2S)-6-hydroxy-2-phenyl-1,2,3,4-tetrahydronaphthalen-1-yl)phenyl)piperazin-1-yl)methyl)cyclohexyl)-6,7-dihydropyrrolo[3,4-f]isoindole-1,3(2H,5H)-dione]: the DC50 was 10 to 100 nM.

With `C[C@@H]1Cc2c([nH]c3ccccc23)[C@@H](c2c(F)cc(N3CCC(CN4CCC(N5Cc6cc7c(cc6C5)C(=O)N(C5CCC(=O)NC5=O)C7)CC4)CC3)cc2F)N1CC(F)F` (stereo partly drawn) [E 53, 3-(6-(1-((1-(4-((1R,3R)-2-(2,2-difluoroethyl)-3-methyl-2,3,4,9-tetrahydro-1H-pyrido[3,4-b]indol-1-yl)-3,5-difluorophenyl)piperidin-4-yl)methyl)piperidin-4-yl)-1-oxo-3,5,6,7-tetrahydropyrrolo[3,4-f]isoindol-2(1H)-yl)piperidine-2,6-dione], the half-maximal degradation concentration (DC50) was in the range of 10 to 100 nM.

For the compound `O=C1CCC(N2C(=O)c3cc4c(cc3C2=O)CN(CC(=O)N2CCC3(CC2)CC(Oc2ccc([C@@H]5c6ccc(O)cc6CC[C@@H]5c5ccccc5)cc2)C3)C4)C(=O)N1` (stereo partly drawn) [E 220, 2-(2,6-dioxopiperidin-3-yl)-6-(2-(2-(4-((1R,2S)-6-hydroxy-2-phenyl-1,2,3,4-tetrahydronaphthalen-1-yl)phenoxy)-7-azaspiro[3.5]nonan-7-yl)-2-oxoethyl)-6,7-dihydropyrrolo[3,4-f]isoindole-1,3(2H,5H)-dione], the 50% degradation concentration (DC50) was more than 100 nM.

`O=C1CCC(N2C(=O)c3cc4c(cc3C2=O)CN(C2CCN(CC3CN(c5ccc([C@H]6c7ccc(O)cc7CC[C@H]6c6ccc(F)cc6)cc5)C3)CC2)C4)C(=O)N1` (stereo partly drawn) [E 276, 2-(2,6-dioxopiperidin-3-yl)-6-(1-((1-(4-((1S,2R)-2-(4-fluorophenyl)-6-hydroxy-1,2,3,4-tetrahydronaphthalen-1-yl)phenyl)azetidin-3-yl)methyl)piperidin-4-yl)-6,7-dihydropyrrolo[3,4-f]isoindole-1,3(2H,5H)-dione]: the DC50 is more than 100 nM.

For the compound `O=C1CCC(N2C(=O)c3cc4c(cc3C2=O)CN([C@H]2CC[C@@H](NC3CN(c5ccc([C@@H]6c7ccc(O)cc7CC[C@@H]6c6ccccc6)cc5)C3)CC2)C4)C(=O)N1` (stereo partly drawn) [E 340, 2-(2,6-dioxopiperidin-3-yl)-6-((1S,4s)-4-((1-(4-((1R,2S)-6-hydroxy-2-phenyl-1,2,3,4-tetrahydronaphthalen-1-yl)phenyl)azetidin-3-yl)amino)cyclohexyl)-6,7-dihydropyrrolo[3,4-f]isoindole-1,3(2H,5H)-dione], the 50% degradation concentration (DC50) was more than 100 nM.

Consider `O=C1CCC(N2C(=O)c3cc4c(cc3C2=O)CN(C[C@H]2CC[C@@H](N3CC(Nc5ccc([C@@H]6c7ccc(O)cc7CC[C@@H]6c6ccccc6)cc5)C3)CC2)C4)C(=O)N1` (stereo partly drawn) [E 375, 2-(2,6-dioxopiperidin-3-yl)-6-(((1S,4s)-4-(3-((4-((1R,2S)-6-hydroxy-2-phenyl-1,2,3,4-tetrahydronaphthalen-1-yl)phenyl)amino)azetidin-1-yl)cyclohexyl)methyl)-6,7-dihydropyrrolo[3,4-f]isoindole-1,3(2H,5H)-dione], for which the half-maximal degradation concentration (DC50) was more than 100 nM.

Staying with this assay, now noted: compounds 16 hours, Table A does not say whether T47D or MCF7, read-out: Potency (DC50).
Regarding `C[C@@H]1Cc2c([nH]c3ccccc23)[C@@H](c2cnc(N3CC4(CCC(CN5Cc6cc7c(cc6C5)C(=O)N(C5CCC(=O)NC5=O)C7=O)CC4)C3)nc2)N1CC(F)(F)CO` (stereo partly drawn) [E 513, 6-((2-(5-((1R,3R)-2-(2,2-difluoro-3-hydroxypropyl)-3-methyl-2,3,4,9-tetrahydro-1H-pyrido[3,4-b]indol-1-yl)pyrimidin-2-yl)-2-azaspiro[3.5]nonan-7-yl)methyl)-2-(2,6-dioxopiperidin-3-yl)-6,7-dihydropyrrolo[3,4-f]isoindole-1,3(2H,5H)-dione], the DC50 is 10 to 100 nM.

Take `C[C@@H]1Cc2cc(O)ccc2[C@@H](c2c(F)cc(N3CCC(CN4CCC(N5Cc6cc7c(cc6C5)C(=O)N(C5CCC(=O)NC5=O)C7=O)CC4)CC3)cc2F)N1CC(F)F` (stereo partly drawn) [E 466, 6-(1-((1-(4-((1S,3R)-2-(2,2-difluoroethyl)-6-hydroxy-3-methyl-1,2,3,4-tetrahydroisoquinolin-1-yl)-3,5-difluorophenyl)piperidin-4-yl)methyl)piperidin-4-yl)-2-(2,6-dioxopiperidin-3-yl)-6,7-dihydropyrrolo[3,4-f]isoindole-1,3(2H,5H)-dione]: the DC50 was more than 100 nM.
